Test results as given in the supplement of paper PMC10307832.

Tests used:
Assay in all cases: relative viability (nuclei count vs DMSO), 5 days (fraction); higher = more cells survive
AZD8055 + Phenformin = compound: COc1ccc(-c2ccc3c(N4CCOC[C@@H]4C)nc(N4CCOC[C@@H]4C)nc3n2)cc1CO [AZD8055] + N=C(N)NC(=N)NCCc1ccccc1 [Phenformin] (partner 250 µM)
How it was run: (§1)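 Lung cancer cell lines in 1536-well plates got either a single drug or a fixed anchor-drug dose together with five library-drug doses (not always all listed) in √10 steps, by pin tool, on the day after seeding. Nuclei were counted after 5 days, and relative viability is the treated-to-vehicle ratio of nuclei counts. Values are medians of duplicate plates.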

AZD8055 + Pemetrexed = compound: COc1ccc(-c2ccc3c(N4CCOC[C@@H]4C)nc(N4CCOC[C@@H]4C)nc3n2)cc1CO [AZD8055] + Nc1nc2[nH]cc(CCc3ccc(C(=O)N[C@@H](CCC(=O)O)C(=O)O)cc3)c2c(=O)[nH]1 [Pemetrexed] (partner 0.2 µM)
How it was run: as §1

AZD8055 + Dasatinib = compound: COc1ccc(-c2ccc3c(N4CCOC[C@@H]4C)nc(N4CCOC[C@@H]4C)nc3n2)cc1CO [AZD8055] + Cc1nc(Nc2ncc(C(=O)Nc3c(C)cccc3Cl)s2)cc(N2CCN(CCO)CC2)n1 [Dasatinib] (partner 0.075 µM)
How it was run: as §1

AZD8055 + Tozasertib = compound: COc1ccc(-c2ccc3c(N4CCOC[C@@H]4C)nc(N4CCOC[C@@H]4C)nc3n2)cc1CO [AZD8055] + Cc1cc(Nc2cc(N3CCN(C)CC3)nc(Sc3ccc(NC(=O)C4CC4)cc3)n2)n[nH]1 [Tozasertib] (partner 0.1 µM)
How it was run: as §1

AZD8055 + Vorinostat = compound: COc1ccc(-c2ccc3c(N4CCOC[C@@H]4C)nc(N4CCOC[C@@H]4C)nc3n2)cc1CO [AZD8055] + O=C(CCCCCCC(=O)Nc1ccccc1)NO [Vorinostat] (partner 1 µM)
How it was run: as §1

AZD8055 + Olaparib = compound: COc1ccc(-c2ccc3c(N4CCOC[C@@H]4C)nc(N4CCOC[C@@H]4C)nc3n2)cc1CO [AZD8055] + O=C(c1cc(Cc2n[nH]c(=O)c3ccccc23)ccc1F)N1CCN(C(=O)C2CC2)CC1 [Olaparib] (partner 8 µM)
How it was run: as §1

AZD8055 + Foretinib = compound: COc1ccc(-c2ccc3c(N4CCOC[C@@H]4C)nc(N4CCOC[C@@H]4C)nc3n2)cc1CO [AZD8055] + COc1cc2c(Oc3ccc(NC(=O)C4(C(=O)Nc5ccc(F)cc5)CC4)cc3F)ccnc2cc1OCCCN1CCOCC1 [Foretinib] (partner 0.25 µM)
How it was run: as §1

AZD8055 + Palbociclib = compound: COc1ccc(-c2ccc3c(N4CCOC[C@@H]4C)nc(N4CCOC[C@@H]4C)nc3n2)cc1CO [AZD8055] + CC(=O)c1c(C)c2cnc(Nc3ccc(N4CCNCC4)cn3)nc2n(C2CCCC2)c1=O [Palbociclib] (partner 0.5 µM)
How it was run: as §1

AZD8055 + OSI-027 = compound: COc1ccc(-c2ccc3c(N4CCOC[C@@H]4C)nc(N4CCOC[C@@H]4C)nc3n2)cc1CO [AZD8055] + COc1cccc2cc(-c3nc([C@H]4CC[C@H](C(=O)O)CC4)n4ncnc(N)c34)[nH]c12 [OSI-027] (partner 0.5 µM)
How it was run: as §1

AZD8055 + Luminespib = compound: COc1ccc(-c2ccc3c(N4CCOC[C@@H]4C)nc(N4CCOC[C@@H]4C)nc3n2)cc1CO [AZD8055] + CCNC(=O)c1noc(-c2cc(C(C)C)c(O)cc2O)c1-c1ccc(CN2CCOCC2)cc1 [Luminespib] (partner 0.01 µM)
How it was run: as §1

AZD8055 + AZD7762 = compound: COc1ccc(-c2ccc3c(N4CCOC[C@@H]4C)nc(N4CCOC[C@@H]4C)nc3n2)cc1CO [AZD8055] + NC(=O)Nc1cc(-c2cccc(F)c2)sc1C(=O)N[C@H]1CCCNC1 [AZD7762] (partner 0.2 µM)
How it was run: as §1

AZD8055 + Trametinib = compound: COc1ccc(-c2ccc3c(N4CCOC[C@@H]4C)nc(N4CCOC[C@@H]4C)nc3n2)cc1CO [AZD8055] + CC(=O)Nc1cccc(-n2c(=O)n(C3CC3)c(=O)c3c(Nc4ccc(I)cc4F)n(C)c(=O)c(C)c32)c1 [Trametinib] (partner 0.02 µM)
How it was run: as §1

AZD8055 + Decitabine = compound: COc1ccc(-c2ccc3c(N4CCOC[C@@H]4C)nc(N4CCOC[C@@H]4C)nc3n2)cc1CO [AZD8055] + Nc1ncn([C@H]2C[C@H](O)[C@@H](CO)O2)c(=O)n1 [Decitabine] (partner 2 µM)
How it was run: as §1

AZD8055 = compound: COc1ccc(-c2ccc3c(N4CCOC[C@@H]4C)nc(N4CCOC[C@@H]4C)nc3n2)cc1CO [AZD8055]
How it was run: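 A plate was accepted only when its control CV was below 25% and the cells had doubled at least once. Viability is defined from nuclear counts as treated wells divided by vehicle wells, with the median taken across plates. That median covers lung cancer cell lines grown in 1536-well plates, dosed by pinning at five √10-spaced library-drug concentrations, and counted in MetaXpress from 4× Hoechst images after 5 days.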

SW 900
relative viability (AZD8055 + Phenformin; first compound 0.01 µM): 0.568
relative viability (AZD8055 + Phenformin; first compound 0.03162 µM): 0.343
relative viability (AZD8055 + Phenformin; first compound 0.1 µM): 0.489
relative viability (AZD8055 + Phenformin; first compound 0.3162 µM): 0.368
relative viability (AZD8055 + Phenformin; first compound 1 µM): 0.169
relative viability (AZD8055 + Pemetrexed; first compound 0.01 µM): 0.493
relative viability (AZD8055 + Pemetrexed; first compound 0.03162 µM): 0.469
relative viability (AZD8055 + Pemetrexed; first compound 0.1 µM): 0.512
relative viability (AZD8055 + Pemetrexed; first compound 0.3162 µM): 0.353
relative viability (AZD8055 + Pemetrexed; first compound 1 µM): 0.241
relative viability (AZD8055 + Dasatinib; first compound 0.01 µM): 0.622
relative viability (AZD8055 + Dasatinib; first compound 0.03162 µM): 0.691
relative viability (AZD8055 + Dasatinib; first compound 0.1 µM): 0.535
relative viability (AZD8055 + Dasatinib; first compound 0.3162 µM): 0.177
relative viability (AZD8055 + Dasatinib; first compound 1 µM): 0.184
relative viability (AZD8055 + Tozasertib; first compound 0.01 µM): 0.567
relative viability (AZD8055 + Tozasertib; first compound 0.03162 µM): 0.747
relative viability (AZD8055 + Tozasertib; first compound 0.1 µM): 0.425
relative viability (AZD8055 + Tozasertib; first compound 0.3162 µM): 0.285
relative viability (AZD8055 + Tozasertib; first compound 1 µM): 0.34
relative viability (AZD8055 + Vorinostat; first compound 0.01 µM): 0.461
relative viability (AZD8055 + Vorinostat; first compound 0.03162 µM): 0.499
relative viability (AZD8055 + Vorinostat; first compound 0.1 µM): 0.538
relative viability (AZD8055 + Vorinostat; first compound 0.3162 µM): 0.325
relative viability (AZD8055 + Vorinostat; first compound 1 µM): 0.265
relative viability (AZD8055 + Olaparib; first compound 0.01 µM): 0.812
relative viability (AZD8055 + Olaparib; first compound 0.03162 µM): 0.952
relative viability (AZD8055 + Olaparib; first compound 0.1 µM): 0.719
relative viability (AZD8055 + Olaparib; first compound 0.3162 µM): 0.48
relative viability (AZD8055 + Olaparib; first compound 1 µM): 0.502
relative viability (AZD8055 + Foretinib; first compound 0.01 µM): 1.03
relative viability (AZD8055 + Foretinib; first compound 0.03162 µM): 0.86
relative viability (AZD8055 + Foretinib; first compound 0.1 µM): 0.647
relative viability (AZD8055 + Foretinib; first compound 0.3162 µM): 0.654
relative viability (AZD8055 + Foretinib; first compound 1 µM): 0.409
relative viability (AZD8055 + Palbociclib; first compound 0.01 µM): 0.546
relative viability (AZD8055 + Palbociclib; first compound 0.03162 µM): 0.559
relative viability (AZD8055 + Palbociclib; first compound 0.1 µM): 0.474
relative viability (AZD8055 + Palbociclib; first compound 0.3162 µM): 0.261
relative viability (AZD8055 + Palbociclib; first compound 1 µM): 0.289
relative viability (AZD8055 + OSI-027; first compound 0.01 µM): 0.592
relative viability (AZD8055 + OSI-027; first compound 0.03162 µM): 0.602
relative viability (AZD8055 + OSI-027; first compound 0.1 µM): 0.536
relative viability (AZD8055 + OSI-027; first compound 0.3162 µM): 0.311
relative viability (AZD8055 + OSI-027; first compound 1 µM): 0.196
relative viability (AZD8055 + Luminespib; first compound 0.01 µM): 0.172
relative viability (AZD8055 + Luminespib; first compound 0.03162 µM): 0.182
relative viability (AZD8055 + Luminespib; first compound 0.1 µM): 0.17
relative viability (AZD8055 + Luminespib; first compound 0.3162 µM): 0.177
relative viability (AZD8055 + Luminespib; first compound 1 µM): 0.16
relative viability (AZD8055 + AZD7762; first compound 0.01 µM): 0.538
relative viability (AZD8055 + AZD7762; first compound 0.03162 µM): 1.01
relative viability (AZD8055 + AZD7762; first compound 0.1 µM): 0.54
relative viability (AZD8055 + AZD7762; first compound 0.3162 µM): 0.324
relative viability (AZD8055 + AZD7762; first compound 1 µM): 0.268
relative viability (AZD8055 + Trametinib; first compound 0.01 µM): 0.897
relative viability (AZD8055 + Trametinib; first compound 0.03162 µM): 0.783
relative viability (AZD8055 + Trametinib; first compound 0.1 µM): 0.622
relative viability (AZD8055 + Trametinib; first compound 0.3162 µM): 0.374
relative viability (AZD8055 + Trametinib; first compound 1 µM): 0.505
relative viability (AZD8055 + Decitabine; first compound 0.01 µM): 0.459
relative viability (AZD8055 + Decitabine; first compound 0.03162 µM): 0.519
relative viability (AZD8055 + Decitabine; first compound 0.1 µM): 0.472
relative viability (AZD8055 + Decitabine; first compound 0.3162 µM): 0.492
relative viability (AZD8055 + Decitabine; first compound 1 µM): 0.47
relative viability (AZD8055; 0.01 µM): 0.827
relative viability (AZD8055; 0.03162 µM): 0.783
relative viability (AZD8055; 0.1 µM): 0.704
relative viability (AZD8055; 0.3162 µM): 0.513
relative viability (AZD8055; 1 µM): 0.236
